The target of one test is human GPR40 (Homo sapiens, UniProt O14842). The test can be described thus: Inositol Phosphate Turnover (IP1) Assay 2. Details: expressed in transfected cells. In kind it is cell-based. To be noted: HEK cells stably expressing human GPR40, Table 2, read-out: Human IP1. How it is done: Human and mouse GPR40 stable cell-lines were generated in CHO cells stably expressing NFAT BLA (Beta-lactamase). A human GPR40 stable cell-line was generated in HEK cells stably expressing the aequorin expressing reporter. The expression plasmids were transfected using lipofectamine (Life Technologies) following manufacturer's instructions. Stable cell-lines were generated following drug selection.
Sequence of human GPR40 (O14842 whole entry): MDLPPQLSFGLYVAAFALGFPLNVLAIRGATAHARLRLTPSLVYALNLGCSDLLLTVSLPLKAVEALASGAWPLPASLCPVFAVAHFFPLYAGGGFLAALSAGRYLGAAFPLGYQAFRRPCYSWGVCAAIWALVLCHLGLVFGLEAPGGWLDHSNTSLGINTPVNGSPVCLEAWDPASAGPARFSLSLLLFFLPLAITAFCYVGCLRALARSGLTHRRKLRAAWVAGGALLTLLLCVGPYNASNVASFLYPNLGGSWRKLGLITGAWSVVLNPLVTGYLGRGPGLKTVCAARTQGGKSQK
The assay is performed in 384-well format. HEK cells stably expressing human GPR40 are plated at 15,000 cells per well in growth medium (DMEM/10% fetal calf serum). Cell plates are then incubated 16 hours at 37 degrees in a 5% CO2 incubator.
Measurement of Inositol Phosphate Turnover (IP1) is performed using the CisBio IP-One kit (Part number 62IPAPEB). After the 16 hour incubation, the cells are washed with HEPES buffer and 10 ul of stimulation buffer (prepared as described in the kit) is added to each well. In a separate plate, compounds are diluted in DMSO (400-fold over the final concentration in the assay well) and 25 nl is acoustically transferred to the appropriate well in the assay cell plate. The plates are then incubated for 60 minutes at 37 degrees. 10 ul of detection buffer (also prepared as described in the IP-One kit) is added to each well and the plates are incubated for 60 minutes in the dark. The plates are then read in a Perkin Elmer EnVision or equivalent reader able to measure FRET.
Regarding `COc1ccc(F)c(-c2ccc(C3CCc4ccc(C(CC(=O)O)C5CC5)cc4O3)cc2C2=CCCC2(C)C)c1` (single isomer, unassigned) [Example 101b], the EC50 was determined as 704 nM. The same measure, in the same setting: the result for `COc1ccc(Cl)c(-c2ccc(C3CCc4ccc([C@@H](CC(=O)O)C5CC5)cc4O3)c(F)c2)c1` (mixture of isomers) [Example 92] reads 19 nM; that for `COc1cc(-c2ccc(C3CCc4ccc([C@H](C5CC5)[C@H](C)C(=O)O)cc4O3)cc2)ccn1` (single isomer, unassigned) [Example 118a], 1.6 nM; that for `COc1ccc(F)c(-c2ccc(C3CCc4ccc([C@H](CC(=O)O)C5CCC5)cc4O3)cc2)c1` (single isomer, unassigned) [Example 148, (3R)-3-cyclobutyl-3-((R or S)-(2-(2′-fluoro-5′-methoxy-[1,1′-biphenyl]-4-yl)chroman-7-yl)propanoic acid], 398 nM.

In the case of `COc1ccc(F)c(-c2ccc([C@H]3CCc4ccc([C@H](C5CC5)[C@H](C)C(=O)O)cc4O3)cc2)c1` (single isomer, unassigned) [Example 64], the EC50 turned out to be 1.1 nM. Same read-out and setting: the result for `COc1ccc(F)c(-c2ccc(C3CCc4ccc([C@H](C5CC5)[C@@H](C)C(=O)O)cc4O3)nc2)c1` (single isomer, unassigned) [Example 97b] reads 30 nM; that for `COc1ccc(F)c(-c2ccc(C3CCc4ccc(C(C)C(C)C(=O)O)cc4O3)cc2)c1` (single isomer, unassigned) [Example 144], 1420 nM; that for `COc1ccc(F)c(-c2ccc(C3CCc4ccc([C@H](C5CC5)[C@H](C)C(=O)O)cc4O3)nc2C(F)(F)F)c1` (single isomer, unassigned) [Example 111b], 25 nM.

On to `COc1cc(-c2ccc(C3CCc4ccc([C@H](C5CC5)[C@H](C)C(=O)O)cc4O3)cc2)ccn1` (single isomer, unassigned) [Example 118b], for which the EC50 was 5.9 nM.

As for `COc1ccc(F)c(-c2ccc(C3CCc4ccc([C@H](C5CC5)[C@@H](C)C(=O)O)cc4O3)cc2)c1` (single isomer, unassigned) [Example 66], the EC50 is 53 nM. Same read-out and setting: the result for `COc1ccc(F)c(-c2ccc([C@@H]3CCc4ccc([C@@H](CC(=O)O)C5CCC5)cc4O3)cc2)c1` (single isomer, unassigned) [Example 151, (3S)-3-cyclobutyl-3-((R or S)-(2-(2′-fluoro-5′-methoxy-[1,1′-biphenyl]-4-yl)chroman-7-yl)propanoic acid] reads 79 nM; that for `COc1ccc(F)c(-c2ccc(C3CCc4ccc([C@H](C5CC5)[C@H](C)C(=O)O)cc4O3)c(C(F)(F)F)n2)c1` (mixture of isomers) [Example 116], 17 nM; that for `COc1cc(-c2cnc(C3CCc4ccc([C@H](C5CC5)[C@H](C)C(=O)O)cc4O3)c(F)c2)ccn1` (mixture of isomers) [Example 121], 11 nM. Regarding `COc1cc(-c2ccc(C3CCc4ccc([C@H](C5CC5)[C@H](C)C(=O)O)cc4O3)nc2)c(F)cn1` (single isomer, unassigned) [Example 112a], the EC50 turned out to be 0.17 nM. The same measure, in the same setting: the result for `COc1ccc(F)c(-c2ccc(C3CCc4ccc(C(C5CCC5)C(C)C(=O)O)cc4O3)cc2)c1` (single isomer, unassigned) [Example 153] reads 22 nM; that for `COc1ccc(F)c(-c2ccc(C3CCc4ccc(C(C)C(C)C(=O)O)cc4O3)cc2)c1` (single isomer, unassigned) [Example 142], 13 nM. Same read-out and setting: the result for `COc1cc(-c2ccc(C3CCc4ccc([C@H](C5CC5)[C@H](C)C(=O)O)cc4O3)nc2C)ccn1` (single isomer, unassigned) [Example 119a] reads 4.1 nM; that for `COc1ccc(F)c(-c2cc(F)c(C3CCc4ccc([C@H](C5CC5)[C@H](C)C(=O)O)cc4O3)nc2C)c1` (single isomer, unassigned) [Example 113a], 3.9 nM; that for `COc1ccc(F)c(-c2ccc(C3CCc4ccc(C(C5CCC5)C(C)C(=O)O)cc4O3)cc2)c1` (single isomer, unassigned) [Example 157], 90 nM. The same measure, in the same setting: the result for `COc1cc(-c2ccc(C3CCc4ccc([C@@H](CC(=O)O)C5CC5)cc4O3)cc2)ccn1` (stereo partly shown) [Example 74] reads 19 nM; that for `COc1cc(-c2ccc(C3CCc4ccc([C@@H](CC(=O)O)C5CC5)cc4O3)cc2)c(F)cn1` (stereo partly shown) [Example 71], 11 nM.

Regarding `COc1cccc(-c2ccc(C3CCc4ccc([C@@H](CC(=O)O)C5CC5)cc4O3)c(F)c2)c1` (mixture of isomers) [Example 90], the EC50 is 10.6 nM.

`COc1ccc(F)c(-c2cnc(C3CCc4ccc([C@H](C5CC5)C(C)C(=O)O)cc4O3)nc2)c1` (single isomer, unassigned) [Example 124a]: the EC50 was found to be 51 nM. On the same count and under the same terms, the result for `CCOc1cc(-c2ccc(C3CCc4ccc([C@@H](CC(=O)O)C5CC5)cc4O3)cc2)ccc1F` (stereo partly shown) [Example 84] reads 1520 nM; that for `COc1ccc(F)c(-c2cc(F)c(C3CCc4ccc([C@H](C5CC5)[C@H](C)C(=O)O)cc4O3)nc2C)c1` (single isomer, unassigned) [Example 113b], 14 nM; that for `COc1cc(-c2ccc(C3CCc4ccc([C@@H](CC(=O)O)C5CC5)cc4O3)c(F)c2)c(F)cc1F` (mixture of isomers) [Example 95], 218 nM. The same measure, in the same setting: the result for `COc1ccc(F)c(-c2ccc(C3CCc4ccc([C@@H](CC(=O)O)C5CC5)cc4O3)cc2)c1` (stereo partly drawn) [Example 60, (3S)-3-cyclopropyl-3-(2-(2′-fluoro-5′-methoxy-[1,1′-biphenyl]-4-yl)chroman-7-yl)propanoic acid] reads 25 nM; that for `COc1ccc(F)c(-c2ccc(C3CCc4ccc([C@H](C5CC5)[C@H](C)C(=O)O)cc4O3)nc2C(OC)C(C)(C)C)c1` (single isomer, unassigned) [Example 135c], 2.8 nM. With `COc1ccc(F)c(-c2ccc(C3CCc4ccc(C(C)C(C)C(=O)O)cc4O3)cc2)c1` (single isomer, unassigned) [Example 143], the EC50 amounted to 252 nM. With `COc1ccc(F)c(-c2ccc(C3CCc4ccc([C@H](C5CC5)[C@H](C)C(=O)O)cc4O3)nc2N2CCC2)c1` (mixture of isomers) [Example 132], the EC50 is 18 nM. The same measure, in the same setting: the result for `COc1cc(-c2ccc(C3CCc4ccc([C@H](C5CC5)[C@H](C)C(=O)O)cc4O3)c(F)c2)ccn1` (mixture of isomers) [Example 133, (2S,3R)-3-cyclopropyl-3-(2-(2-fluoro-4-(2-methoxypyridin-4-yl)phenyl)-chroman-7-yl)-2-methylpropanoic acid] reads 1.2 nM; that for `COc1ccc(F)c(-c2ccc(C3CCc4ccc(C(C)C(C)C(=O)O)cc4O3)cc2)c1` (single isomer, unassigned) [Example 146], 270 nM.

For `COc1cc(-c2ccc(C3CCc4ccc([C@@H](CC(=O)O)C5CC5)cc4O3)c(F)c2)c(F)cn1` (mixture of isomers) [Example 91], the EC50 came to 3.6 nM.

Consider `COc1ccc(F)c(-c2ccc(C3CCc4ccc([C@H](C5CC5)[C@@H](C)C(=O)O)cc4O3)cc2)c1` (single isomer, unassigned) [Example 65], for which the EC50 was found to be 51 nM. Same read-out and setting: in the case of `COc1ccc(F)c(-c2ccc(C3CCc4ccc(C(C)CC(=O)O)cc4O3)cc2)c1` (single isomer, unassigned) [Example 140] it was 1230 nM; in that of `COc1ccc(F)c(-c2ccc([C@H]3CCc4ccc([C@@H](CC(=O)O)C5CCC5)cc4O3)cc2)c1` (single isomer, unassigned) [Example 149, (3S)-3-cyclobutyl-3-((R or S)-(2-(2′-fluoro-5′-methoxy-[1,1′-biphenyl]-4-yl)chroman-7-yl)propanoic acid], 41 nM.

Staying with this test, now noted: HEK cells stably expressing human GPR40, Table 3, read-out: Human IP1 activity.
Turning to `COc1ccc(F)c(-c2ccc(C3COc4ccc([C@H](C5CC5)[C@H](C)C(=O)O)cc4O3)cc2OC(F)(F)F)c1` (mixture of isomers) [Example 169], the EC50 was 9.5 nM. Consider `COc1ccc(F)c(-c2ccc(C3COc4ccc([C@H](C5CC5)[C@H](C)C(=O)O)cc4O3)cc2OC(F)(F)F)c1` (single isomer, unassigned) [Example 172], for which the EC50 is 6.9 nM. Take `COc1ccc(F)c(-c2ccc(C3COc4ccc([C@H](C5CC5)[C@H](C)C(=O)O)cc4O3)cc2)c1` (single isomer, unassigned) [Example 174]: the EC50 stood at 0.5 nM. As to `COc1ccc(F)c(-c2ccc([C@@H]3COc4ccc([C@H](C5CC5)[C@H](C)C(=O)O)cc4O3)cc2-c2cccc3ccn(C)c23)c1` [Example 180], the EC50 was determined as 4.8 nM. Turning to `COc1ccc(F)c(-c2ccc(C3COc4ccc([C@H](C5CC5)[C@H](C)C(=O)O)c(F)c4O3)cc2)c1` (single isomer, unassigned) [Example 185], the EC50 is 2 nM. Same read-out and setting: in the case of `COc1ccc(F)c(-c2ccc([C@H]3COc4ccc([C@H](C5CC5)[C@H](C)C(=O)O)cc4O3)cc2-c2cccc3ccn(C)c23)c1` [Example 181] it was 8.3 nM; in that of `COc1ccc(F)c(-c2ccc(C3COc4ccc([C@H](C5CC5)[C@H](C)C(=O)O)cc4O3)cc2)c1` (single isomer, unassigned) [Example 173], 1.8 nM.
